The target in one assay is T1, LGMN Legumain (Homo sapiens, UniProt Q99538).
T1 construct: Cells were resuspended in cold PBS on ice and sonicated with a probe sonicator to achieve lysis; endogenous in cells
T1 sequence (Q99538 18-323): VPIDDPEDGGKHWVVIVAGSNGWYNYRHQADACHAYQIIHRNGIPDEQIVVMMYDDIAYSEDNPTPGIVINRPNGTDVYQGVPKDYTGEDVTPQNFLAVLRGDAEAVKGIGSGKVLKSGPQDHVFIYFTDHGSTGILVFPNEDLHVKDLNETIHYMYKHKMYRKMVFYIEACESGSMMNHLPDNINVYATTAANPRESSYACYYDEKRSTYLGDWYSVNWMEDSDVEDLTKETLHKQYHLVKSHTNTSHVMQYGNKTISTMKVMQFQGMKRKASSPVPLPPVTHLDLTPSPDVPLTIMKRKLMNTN
Nature of the assay: Cysteine liganding, probe competition. The class given is binding. The note with it: for 100 Max / 100 ave / 500 Max / 500 ave: uniprot Q99538. In outline:
(§1)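 Steps: sonicate cells in cold PBS; treat 5 mg/ml lysate with compound (25° C, 1 hr); add desthiobiotin iodoacetamide probe from a 10 mM stock (25° C, 1 hr); precipitate, reduce, alkylate, digest with trypsin; capture labelled peptides on streptavidin for analysis.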

Another assay has as its target T2, PML Protein PML (Homo sapiens, UniProt P29590).
T2 construct: Cells were resuspended in cold PBS on ice and sonicated with a probe sonicator to achieve lysis; endogenous in cells
T2 sequence (P29590 1-882): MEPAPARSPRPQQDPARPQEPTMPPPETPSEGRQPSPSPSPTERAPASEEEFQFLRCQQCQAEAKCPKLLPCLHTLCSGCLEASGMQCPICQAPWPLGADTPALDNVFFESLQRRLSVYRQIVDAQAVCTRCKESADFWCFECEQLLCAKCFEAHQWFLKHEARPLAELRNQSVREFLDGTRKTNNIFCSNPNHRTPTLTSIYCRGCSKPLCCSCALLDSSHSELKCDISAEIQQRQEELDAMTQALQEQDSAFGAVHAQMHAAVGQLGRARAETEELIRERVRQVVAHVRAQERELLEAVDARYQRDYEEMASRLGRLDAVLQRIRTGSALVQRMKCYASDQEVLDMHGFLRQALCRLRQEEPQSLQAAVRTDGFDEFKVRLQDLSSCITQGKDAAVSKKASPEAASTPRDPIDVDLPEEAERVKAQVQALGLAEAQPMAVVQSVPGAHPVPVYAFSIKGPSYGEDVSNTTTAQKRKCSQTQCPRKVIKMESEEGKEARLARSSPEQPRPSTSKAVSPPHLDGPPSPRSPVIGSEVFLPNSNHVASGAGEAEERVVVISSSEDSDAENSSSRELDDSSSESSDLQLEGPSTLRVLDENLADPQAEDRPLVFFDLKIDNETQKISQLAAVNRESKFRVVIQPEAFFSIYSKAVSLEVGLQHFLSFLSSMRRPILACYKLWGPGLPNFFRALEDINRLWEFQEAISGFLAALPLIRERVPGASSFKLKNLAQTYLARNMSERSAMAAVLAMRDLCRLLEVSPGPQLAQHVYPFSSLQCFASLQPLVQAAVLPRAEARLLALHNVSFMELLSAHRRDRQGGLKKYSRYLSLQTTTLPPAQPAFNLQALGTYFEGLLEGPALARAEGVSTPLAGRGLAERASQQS
Nature of the assay: Cysteine liganding, probe competition. The class given is binding. In outline: as §1

The source of these data is patent US20200239530A1, “COMPOUNDS AND METHODS OF MODULATING PROTEIN DEGRADATION” (Vividion Therapeutics, Inc., priority 2017, published 2020).

For `O=C(CCl)Nc1cc(C(F)(F)F)cc(C(F)(F)F)c1` [KBO3], at LGMN Legumain, the “100 Max” value is 12.45, the 100 ave is given as 0.755, the “500 Max” value turned out to be 60.93 and the 500 ave turned out to be 60.93. Moreover, the “KB03_500 uM_percent_inhibition” value on PML Protein PML (UniProt P29590, 500 uM) was determined as 69%.

For the compound `COc1ccc2c(c1)CCCN2C(=O)CCl` [KB02], the Liganded result at LGMN Legumain (LGMN Res# 50, uniprot Q99538) is recorded as “YES”. Further, on LGMN Legumain, the “100 Max” value is on record as 33.6, the 100 ave worked out at 20.31, the “500 Max” value was determined as 78.38 and the 500 ave is on record as 78.38. Also, the Liganded result on PML Protein PML (PML Res# 479, uniprot P29590) is on record as “YES”. Also, the Liganded result on PML Protein PML (PML Res# 484, uniprot P29590) is recorded as “YES”.
